Results from article PMC11024163, “MmcA is an electron conduit that facilitates both intracellular and extracellular electron transport in Methanosarcina acetivorans” (Nature Communications, 2024).

Target: T1, MmcA (Methanosarcina acetivorans, UniProt Q8TSY5)
T1 construct: gene MA_0658; mature holo-protein of 476 aa (signal peptide removed), C-terminal 3xFLAG and twin-Strep tags kept; homologous expression in M. acetivorans, anti-Flag purified from Triton X-100 solubilised membranes; seven covalent hemes c
T1 sequence (Q8TSY5 25-500): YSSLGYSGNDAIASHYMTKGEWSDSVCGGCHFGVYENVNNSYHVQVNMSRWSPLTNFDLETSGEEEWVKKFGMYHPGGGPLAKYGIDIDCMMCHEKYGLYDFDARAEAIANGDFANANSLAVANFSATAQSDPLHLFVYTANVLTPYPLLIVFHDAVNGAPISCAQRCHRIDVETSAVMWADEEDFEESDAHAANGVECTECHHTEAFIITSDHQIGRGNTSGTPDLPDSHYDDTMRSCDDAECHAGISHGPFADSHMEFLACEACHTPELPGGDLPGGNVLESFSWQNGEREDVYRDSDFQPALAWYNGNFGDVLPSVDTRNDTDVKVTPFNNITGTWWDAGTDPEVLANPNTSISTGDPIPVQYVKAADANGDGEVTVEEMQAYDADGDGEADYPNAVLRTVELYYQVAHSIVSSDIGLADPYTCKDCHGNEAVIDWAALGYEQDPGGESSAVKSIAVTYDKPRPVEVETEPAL
Assay: UV-vis spectral oxidation of dithionite-reduced MmcA
Type: biochemical
Settings: 2.5–3.5 µM MmcA, 50 mM Tris-HCl, 150 mM NaCl, 2% glycerol, pH 7.4, room temperature, anaerobic

| Structure (SMILES) | UV-vis spectral oxidation of dithionite-reduced MmcA (electron acceptor, soluble methanophenazine analogue, 200 µM) | UV-vis spectral oxidation of dithionite-reduced MmcA (electron acceptor in excess) |
| --- | --- | --- |
| Oc1ccc2nc3ccccc3nc2c1 [2HP, 2-hydroxyphenazine] | The addition of 2HP instantaneously oxidized MmcA as observed by a shift in its Soret |  |
| O=C1c2ccc(S(=O)(=O)O)cc2C(=O)c2ccc(S(=O)(=O)O)cc21 [AQDS, anthraquinone-2,6-disulfonate] |  | All three electron acceptors oxidized MmcA rapidly |
